Reference: ChEMBL document CHEMBL2157906, “Identification of a dual δ OR antagonist/μ OR agonist as a potential therapeutic for diarrhea-predominant Irritable Bowel Syndrome (IBS-d)” (Bioorg Med Chem Lett, 2012)
The source made the active and inactive calls. The calls are words filed in the database; no cut-off is given here.

What was measured:
[1] = target: Mu-type opioid receptor (Rattus norvegicus, UniProt P33535); test: Binding affinity to rat mu opioid receptor
[2] = target: T1, Delta-type opioid receptor (Homo sapiens, UniProt P41143); test: Antagonist activity at delta opioid receptor expressed in CHO-hg cells assessed as inhibition of SNC-80-induced [35S]-GTPgammaS binding; type: functional, cell-based
[3] = target: Delta-type opioid receptor (Rattus norvegicus, UniProt P33533); test: Binding affinity to rat delta opioid receptor
[4] = target: T1, Delta-type opioid receptor; test: Agonist activity at delta opioid receptor expressed in CHO-hg cells by [35S]-GTPgammaS binding assay; type: functional, cell-based
[5] = target: Cytochrome P450 3A4 (Homo sapiens, UniProt P08684); test: Inhibition of CYP3A4 in human liver microsomes; type: ADME, Microsome
[6] = target: Voltage-gated inwardly rectifying potassium channel KCNH2 (Homo sapiens, UniProt Q12809); test: Displacement of [3H]-astemizole from human ERG
[7] = Half life in human liver microsomess; type: ADME, Microsome; settings: liver microsomes
[8] = target: T2, Mu-type opioid receptor (Homo sapiens, UniProt P35372); test: Binding affinity to human mu opioid receptor
[9] = Solubility of the compound at pH 7.4; type: physicochemical; settings: buffer
[10] = Antagonist activity at delta opioid receptor in hamster vas deferens tissue; type: functional, tissue-based; settings: Cricetinae
[11] = target: T2, Mu-type opioid receptor; test: Agonist activity at mu opioid receptor expressed in CHO-hg cells by [35S]-GTPgammaS binding assay; type: functional, cell-based
[12] = target: T3, Kappa-type opioid receptor (Cavia porcellus, UniProt P41144); test: Binding affinity to guinea pig kappa opioid receptor
[13] = target: T3, Kappa-type opioid receptor; test: Agonist activity at kappa opioid receptor guinea pig colon tissue; type: functional, tissue-based

T1 sequence (P41143 whole entry): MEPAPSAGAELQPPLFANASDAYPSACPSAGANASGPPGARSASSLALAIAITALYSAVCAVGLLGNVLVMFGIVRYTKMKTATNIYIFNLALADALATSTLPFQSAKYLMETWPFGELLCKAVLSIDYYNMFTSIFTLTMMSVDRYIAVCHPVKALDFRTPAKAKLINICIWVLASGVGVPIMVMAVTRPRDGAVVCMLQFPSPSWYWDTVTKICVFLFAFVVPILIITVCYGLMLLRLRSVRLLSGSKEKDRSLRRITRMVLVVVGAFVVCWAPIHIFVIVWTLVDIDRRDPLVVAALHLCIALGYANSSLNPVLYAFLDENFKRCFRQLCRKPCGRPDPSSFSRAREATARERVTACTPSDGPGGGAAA
T2 sequence (P35372 whole entry): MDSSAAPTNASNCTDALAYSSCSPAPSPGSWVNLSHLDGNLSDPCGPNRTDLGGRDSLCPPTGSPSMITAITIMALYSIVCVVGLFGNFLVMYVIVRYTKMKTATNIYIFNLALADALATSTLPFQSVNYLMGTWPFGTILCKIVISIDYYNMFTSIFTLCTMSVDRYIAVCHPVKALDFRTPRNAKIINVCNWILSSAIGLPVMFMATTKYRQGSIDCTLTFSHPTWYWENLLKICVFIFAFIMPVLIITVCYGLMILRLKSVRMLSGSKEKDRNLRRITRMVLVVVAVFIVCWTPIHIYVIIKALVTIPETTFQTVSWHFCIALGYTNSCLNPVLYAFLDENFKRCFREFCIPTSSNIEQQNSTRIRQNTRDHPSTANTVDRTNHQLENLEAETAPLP
Mu-type opioid receptor (Rattus norvegicus, UniProt P33535), sequence (P33535 whole entry): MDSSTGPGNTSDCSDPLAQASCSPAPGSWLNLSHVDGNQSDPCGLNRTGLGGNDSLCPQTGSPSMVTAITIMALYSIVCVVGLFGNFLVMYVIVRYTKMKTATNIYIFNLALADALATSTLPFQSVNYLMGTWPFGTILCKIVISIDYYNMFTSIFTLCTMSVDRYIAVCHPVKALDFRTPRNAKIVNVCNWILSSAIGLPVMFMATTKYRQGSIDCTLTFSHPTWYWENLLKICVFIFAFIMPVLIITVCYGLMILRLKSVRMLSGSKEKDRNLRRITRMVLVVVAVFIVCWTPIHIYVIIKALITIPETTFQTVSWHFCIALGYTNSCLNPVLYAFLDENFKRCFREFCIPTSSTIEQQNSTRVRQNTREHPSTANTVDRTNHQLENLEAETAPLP
Delta-type opioid receptor (Rattus norvegicus, UniProt P33533), sequence (P33533 whole entry): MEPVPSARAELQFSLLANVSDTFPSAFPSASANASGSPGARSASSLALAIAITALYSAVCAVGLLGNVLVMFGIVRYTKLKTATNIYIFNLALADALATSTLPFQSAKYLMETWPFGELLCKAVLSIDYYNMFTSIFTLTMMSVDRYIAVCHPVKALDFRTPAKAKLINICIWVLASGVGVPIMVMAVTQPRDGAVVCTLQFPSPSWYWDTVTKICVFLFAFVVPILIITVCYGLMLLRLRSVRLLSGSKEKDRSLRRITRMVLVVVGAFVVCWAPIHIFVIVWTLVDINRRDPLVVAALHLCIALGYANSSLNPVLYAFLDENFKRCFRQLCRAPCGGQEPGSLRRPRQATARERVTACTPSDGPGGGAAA
T3 sequence (P41144 whole entry): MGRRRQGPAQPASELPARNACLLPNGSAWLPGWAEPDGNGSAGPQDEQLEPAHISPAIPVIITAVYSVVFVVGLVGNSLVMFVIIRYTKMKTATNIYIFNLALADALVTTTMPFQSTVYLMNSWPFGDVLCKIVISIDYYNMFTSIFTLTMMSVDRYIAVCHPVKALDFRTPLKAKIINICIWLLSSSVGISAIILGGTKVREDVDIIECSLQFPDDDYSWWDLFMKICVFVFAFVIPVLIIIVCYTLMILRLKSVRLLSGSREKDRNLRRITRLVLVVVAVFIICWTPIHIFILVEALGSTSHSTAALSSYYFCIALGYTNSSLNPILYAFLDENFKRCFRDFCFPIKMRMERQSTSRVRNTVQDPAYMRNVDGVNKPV
Cytochrome P450 3A4, sequence (P08684 whole entry): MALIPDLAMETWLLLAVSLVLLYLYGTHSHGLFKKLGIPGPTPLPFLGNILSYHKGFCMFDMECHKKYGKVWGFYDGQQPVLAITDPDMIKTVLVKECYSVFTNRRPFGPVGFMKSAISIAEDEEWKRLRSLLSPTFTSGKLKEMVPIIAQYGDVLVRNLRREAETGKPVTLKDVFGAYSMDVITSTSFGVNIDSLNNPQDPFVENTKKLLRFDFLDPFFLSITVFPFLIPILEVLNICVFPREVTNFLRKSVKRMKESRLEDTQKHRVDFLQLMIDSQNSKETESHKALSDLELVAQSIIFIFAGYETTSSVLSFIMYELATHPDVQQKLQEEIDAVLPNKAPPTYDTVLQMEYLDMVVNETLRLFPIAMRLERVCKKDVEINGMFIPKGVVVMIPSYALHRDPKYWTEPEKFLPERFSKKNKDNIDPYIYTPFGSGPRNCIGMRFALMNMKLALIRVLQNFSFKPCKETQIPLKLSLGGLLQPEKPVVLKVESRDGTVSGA
Voltage-gated inwardly rectifying potassium channel KCNH2, sequence (Q12809 whole entry): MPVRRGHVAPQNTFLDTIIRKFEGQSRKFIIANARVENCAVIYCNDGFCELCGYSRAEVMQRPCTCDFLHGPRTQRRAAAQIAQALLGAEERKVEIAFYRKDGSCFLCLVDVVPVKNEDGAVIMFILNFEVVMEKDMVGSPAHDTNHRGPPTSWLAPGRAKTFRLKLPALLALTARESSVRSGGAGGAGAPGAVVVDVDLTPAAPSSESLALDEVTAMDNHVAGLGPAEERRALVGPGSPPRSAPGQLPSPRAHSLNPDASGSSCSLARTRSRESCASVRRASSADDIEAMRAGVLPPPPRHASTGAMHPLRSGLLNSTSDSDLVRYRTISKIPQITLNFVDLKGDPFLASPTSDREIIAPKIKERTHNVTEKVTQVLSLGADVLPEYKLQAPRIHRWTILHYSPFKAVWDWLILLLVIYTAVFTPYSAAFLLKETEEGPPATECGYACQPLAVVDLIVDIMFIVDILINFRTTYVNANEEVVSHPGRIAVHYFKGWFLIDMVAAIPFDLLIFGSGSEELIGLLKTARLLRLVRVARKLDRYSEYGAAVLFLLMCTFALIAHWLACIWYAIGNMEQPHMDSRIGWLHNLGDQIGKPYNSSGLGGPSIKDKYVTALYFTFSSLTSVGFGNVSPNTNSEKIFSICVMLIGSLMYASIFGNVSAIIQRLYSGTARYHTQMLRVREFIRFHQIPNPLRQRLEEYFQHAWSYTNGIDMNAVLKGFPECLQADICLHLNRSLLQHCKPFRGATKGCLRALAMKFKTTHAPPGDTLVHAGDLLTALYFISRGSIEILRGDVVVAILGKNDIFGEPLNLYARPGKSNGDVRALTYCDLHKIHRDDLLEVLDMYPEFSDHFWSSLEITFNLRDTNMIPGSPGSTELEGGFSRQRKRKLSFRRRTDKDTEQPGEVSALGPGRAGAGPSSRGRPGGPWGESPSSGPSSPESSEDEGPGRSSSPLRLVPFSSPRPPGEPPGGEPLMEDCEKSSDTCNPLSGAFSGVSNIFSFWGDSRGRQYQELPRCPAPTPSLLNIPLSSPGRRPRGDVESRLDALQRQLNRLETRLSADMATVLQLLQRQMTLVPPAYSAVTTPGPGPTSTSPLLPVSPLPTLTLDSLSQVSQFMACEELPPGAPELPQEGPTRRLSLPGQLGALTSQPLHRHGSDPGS

| Structure (SMILES) | Ki [1] [nM] | Ki [3] [nM] | EC50 [4] [nM] | EC50 [11] [nM] | other results |
| --- | --- | --- | --- | --- | --- |
| Cc1cc(C(N)=O)cc(C)c1C[C@H](N)C(=O)N(Cc1ccccc1)[C@@H](C)c1nc(-c2ccccc2)c[nH]1 | 0.3 | – | – | – | – |
| Cc1cc(C(N)=O)cc(C)c1C[C@H](N)C(=O)N(Cc1cccc(C(=O)O)c1)[C@@H](C)c1nc(-c2ccccc2)c[nH]1 | 1 | 0.5 | > 10000 | – | inhibition [2]: Active |
| Cc1cc(O)cc(C)c1C[C@H](N)C(=O)N[C@@H](Cc1ccccc1)c1nc(-c2ccccc2)c[nH]1 | 13 | – | – | – | – |
| Cc1cc(O)cc(C)c1C[C@H](N)C(=O)N(C(C)C)[C@@H](C)c1nc(-c2ccccc2)c[nH]1 | 0.03 | 1.4 | 103 | – | – |
| COc1ccc(CN(C(=O)[C@@H](N)Cc2c(C)cc(C(N)=O)cc2C)C(C)c2nc(-c3ccccc3)c[nH]2)cc1C(=O)O.Cl.Cl (single isomer, unassigned) | – | – | – | – | IC50 [5]: > 20000 nM; IC50 [6]: > 10000 nM; half-life [7]: 2.5 h; Ki [8]: 1.7 nM; solubility [9]: > 1000 µg/mL |
| COc1ccc(CN(C(=O)[C@@H](N)Cc2c(C)cc(C(N)=O)cc2C)[C@@H](C)c2ncc(-c3ccccc3)[nH]2)cc1C(=O)O [ELUXADOLINE] | – | – | – | – | IC50 [10]: 89 nM; inhibition [2]: Active |
| Cc1cc(C(N)=O)cc(C)c1C[C@H](N)C(=O)N1Cc2ccccc2C[C@H]1c1nc(-c2ccccc2)c[nH]1 | – | – | 22 | 161 | – |
| Cc1cc(O)cc(C)c1C[C@H](N)C(=O)N(Cc1ccccc1)[C@@H](C)c1nc(-c2ccccc2)c[nH]1 | – | 1.5 | – | – | – |
| Cc1cc(O)cc(C)c1C[C@H](N)C(=O)N1Cc2ccccc2C[C@H]1c1nc(-c2ccccc2)c[nH]1 | – | – | 0.9 | 27 | – |
| Cc1cc(C(N)=O)cc(C)c1C[C@H](N)C(=O)N1CCCC[C@H]1c1nc(-c2ccccc2)c[nH]1 | – | – | 135 | 9 | – |
| COc1ccc(CN(C(=O)[C@@H](N)Cc2c(C)cc(C(N)=O)cc2C)[C@@H](C)c2nc(-c3ccccc3)c[nH]2)cc1C(=O)O [ELUXADOLINE] | 0.9 | 1.3 | > 10000 | – | Ki [12]: 55 nM; EC50 [13]: 1600 nM |
| Cc1cc(O)cc(C)c1C[C@H](N)C(=O)N(Cc1nc(-c2ccccc2)c[nH]1)C(C)C | 0.1 | 15 | – | – | – |
| Cc1cc(O)cc(C)c1C[C@H](N)C(=O)N1CCCC[C@H]1c1nc(-c2ccccc2)c[nH]1 | – | – | 37 | 2 | – |
| N[C@@H](Cc1ccc(O)cc1)C(=O)N1Cc2ccccc2C[C@H]1c1nc(-c2ccccc2)c[nH]1 | – | – | 19 | 2440 | – |
| Cc1cc(O)cc(C)c1C[C@H](N)C(=O)N(C)[C@@H](C)c1nc(-c2ccccc2)c[nH]1 | – | 15 | – | – | – |
